Test systems include RXF 631; SNB-78; MDA-MB-435; MCF7; MDA-MB-231; Hs-578T; KM-20L2.
Experiment in all cases: NCI-60 cell line screen, 48 h

Each structure is given as a SMILES string.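 Step 1: Grow cells in 96-well plates. Step 2: Expose to compound for 48 hours at 5 concentrations. Step 3: Interpolate endpoints linearly; if unreached, use highest concentration. Abbreviation: GI50, concentration required for 50% inhibition of growth.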 The source made the active and inactive calls. Rule as the data show it: active = GI50 up to about 1.1 µM and inactive = higher.

Take `OC(c1ccccc1)C1CC2C=CC1C2` (stereo unspecified): the GI50 with RXF 631 and in the experiment with SNB-78 was > 100 µM (inactive) in each case.
`COc1ccc(N2C(=O)C3c4[nH]c5c(C)cccc5c4C4CCC(C(C)(C)C)CC4C3C2=O)cc1` (stereo unspecified): the GI50 in the experiment on MDA-MB-435 was > 10 µM (inactive); with MCF7 it was 3.56 µM (inactive); in the experiment on MDA-MB-231 it was > 10 µM (inactive); with Hs-578T, 8.17 µM (inactive).
As to `OC12c3ccccc3C1CCCCCCCCCC21OCCCO1` (stereo unspecified), the GI50 with SNB-78 was > 100 µM (inactive).
With `CCN(CC)CCC(=O)c1ccccc1`, in the experiment with KM-20L2, the GI50 was 21.5 µM (inactive).
As to `COc1cc(O)c2c(=O)c(O)c(-c3ccc(O)c(O)c3)oc2c1` [RHAMNETIN], the GI50 in the experiment on MDA-MB-435 is 13 µM (inactive); in the experiment with MCF7, 17.8 µM (inactive); in the experiment with MDA-MB-231, 10.7 µM (inactive).

Values taken from ChEMBL document CHEMBL1201862, “PubChem BioAssay data set” (2004).
